# Test results reported in paper PMC5602130, “Food and Sex-Related Impacts on the Pharmacokinetics of a Single-Dose of Ginsenoside Compound K in Healthy Subjects” (Frontiers in Pharmacology, 2017).
# Marks after values point to notes of the source that are not given here.
# Tests used:
# [1] = Food-effect trial: cumulative excretion rate from urine (0-48 h); type: in vivo, human; details: single oral 200 mg CK
# Experimental: The food-effect trial was an open-label, randomized, two-period, two-treatment crossover trial, carried out from 15 January to 31 March 2015. Subjects (n = 24) were admitted to the clinical facility (Center of Clinical Pharmacology, the Third Xiangya Hospital, Central South University, Changsha, China) and randomized to receive a single 200 mg oral dose of Ginsenoside CK Tablets (4 × 50 mg tablets) either after a 10 h-fasting period or within 30 min after beginning the consumption of a recommended high-fat, high calorie breakfast (150 calories of protein, 250 calories of carbohydrates, 500 to 600 calories of fat; total calories approximately 800–1,000). Tablets were administered with 250 mL of water, to each subject, in each treatment period. Drinking was prohibited for 2 h before and after medication. Apart from this, the amount and time of drinking were not strictly controlled. Subjects had unified, standard meals 4 and 10 h after drug administration. The alternate treatment was conducted after a 14-day washout period. Urine samples were collected 0–24 and 24–48 h after the administration and the volumes were measured immediately after collection. We preserved 8 mL in centrifuge tube for PK assessment, which were stored at −70°C before analysis. Descriptive statistics of PK parameters were calculated using established non-compartmental methods, utilizing the WinNonLin version 6.1 software (Pharsight Corporation, USA). The PK parameters determined for each participant included apparent terminal half-life (t1/2), maximum plasma concentration (Cmax), time to Cmax (tmax), area under the plasma concentration-time curve from the time of administration up to the last time point with a measurable concentration post-dose (AUClast), AUC extrapolated to infinity (AUCinf), apparent volume of distribution (V/F), apparent plasma clearance (CL/F) after extravascular administration, mean residence time (MRTlast and MRTinf), and the cumulative excretion rate from urine. The t1/2 was estimated as (ln2)/K, where K represented the slope of the terminal phase of plasma concentration-time profile and was assessed with a weighting factor of 1, using least squares (log-linear regression of at least three data points). The Cmax and tmax were obtained from experimental observations. The values of AUC were calculated using conventional trapezoidal and log-trapezoidal methods and the extrapolated area (Rowland and Tozer, [1995]). CL/F and V/F were calculated as dose/AUCinf and (CL/F)/K, respectively. MRT was calculated as MRT = AUMC/AUC, where AUMC is the area under the first moment curve. The cumulative excretion rate was calculated as the amount of unchanged drug over a time interval in the urine divided by dose, and was expressed as a percentage. The processing of urine samples was similar to that of plasma samples. […] For QC samples containing 2.00, 50.10, or 801.60 ng·mL^−1 CK were prepared using homogenic human urine with the mean bias ranged from −5.54 to 3.56%, while the CVs ranged from 1.38 to 4.89%.
# [2] = Food-effect trial: safety assessments (adverse events, vital signs, ECG, laboratory tests); type: in vivo, human
# Experimental: All available information on the study participants was included in the summaries of safety assessments, and must be recorded on the case-report form by investigators. The safety assessment took place throughout the project, and it included continuous observation of adverse events (AEs), monitoring of vital signs, 12-lead ECGs, hematological and biochemical analyses, and urinalysis. Specifically, the monitoring began the night before drug administration (at least 10 h), when subjects were admitted to the clinical facility, and continued for 96 h after dosing. ECGs were recorded prior to the administration and 1, 4, 12, 24, 48, 72, and 96 h after the administration of CK, as well as during physical examinations before and after the trial. Apart from investigators' review, data were also obtained from subjects by recounting or narrating themselves. Subsequently, AEs were classified by intensity into mild, moderate, and severe. A second classification of AEs, based on the relationship of AEs to the test drug, was performed, dividing them into positive, probable, possible, remote, or unrelated.
# [3] = Early clinical trial: sex differences of ginsenoside compound K pharmacokinetics (Supplementary Table 1); details: human, in vivo; for Cmax: n = 12
# Experimental: Therefore, a secondary purpose of this trial is to investigate whether there are any differences in the pharmacokinetics of CK between males and females, and whether the findings are consistent with what was previously observed. This report described an open-label, single-center trial, designed as a two-period crossover study, performed on healthy Chinese subjects (n = 24) randomized to either the fasting overnight (FO) or the high-fat (HF) meal group, before receiving a single 200 mg dose of Ginsenoside CK Tablets. Consequently, this study also provides evidence for dosing regimens, for late-stage clinical studies and clinical applications. Supplementary Table 1. Sex differences of ginsenoside compound K in human (n = 12).
# [4] = design: method as in Chen et al., [2014]; details: rats; ref Chen et al., [2014]; cited from earlier work
# [5] = Abnormal urine routine, possible related
# [6] = Elevated creatine kinase, possible related
# [7] = Elevated direct bilirubin, probable related
# [8] = Elevated triglycerides, possible related
# [9] = Upper respiratory tract infection, possible related
smiles,measurement,setting,value
"CC(C)=CCCC(C)(OC1OC(CO)C(O)C(O)C1O)C1CCC2(C)C1C(O)CC1C3(C)CCC(O)C(C)(C)C3CCC12C [CK, 20-O-beta-D-glucopyranosyl-20(S)-protopanaxadiol]",Cumulative excretion rate,"[1]; FO, female",0.083 ± 0.049%
same,Cumulative excretion rate,"[1]; FO, male",0.037 ± 0.029%
same,Cumulative excretion rate,"[1]; HF, all subjects",0.020 ± 0.015%
same,Cumulative excretion rate,"[1]; HF, female",0.019 ± 0.070%
same,Cumulative excretion rate,"[1]; HF, male",0.022 ± 0.020%
same,Cumulative excretion rate,"[1]; unchanged drug / dose, FO, all subjects",0.060 ± 0.046%
same,Adverse events: Number of cases,[2]; [5],1^c
same,Adverse events: Percentage,[2]; [5],4.2%
same,Adverse events: Number of cases,"[2]; Bellyache, positive related",3^a
same,Adverse events: Percentage,"[2]; Bellyache, positive related",12.5%
same,Adverse events: Number of cases,"[2]; Diarrhea, probable related",1^b
same,Adverse events: Percentage,"[2]; Diarrhea, probable related",4.2%
same,Adverse events: Number of cases,[2]; [6],3^c
same,Adverse events: Percentage,[2]; [6],12.5%
same,Adverse events: Number of cases,[2]; [7],1^b
same,Adverse events: Percentage,[2]; [7],4.2%
same,Adverse events: Number of cases,[2]; [8],3^c
same,Adverse events: Percentage,[2]; [8],12.5%
same,"Incidence of AEs classified as positive, probable and possible in relation to the test drug",[2]; FO regimen,55.6%
same,"Incidence of AEs classified as positive, probable and possible in relation to the test drug",[2]; HF regimen,44.4%
same,Adverse events: Number of cases,"[2]; Hematuria, possible related",1^c
same,Adverse events: Percentage,"[2]; Hematuria, possible related",4.2%
same,Adverse events: Number of cases,"[2]; Nausea, probable related",1^b
same,Adverse events: Percentage,"[2]; Nausea, probable related",4.2%
same,Adverse events: Number of cases,[2]; [9],1^c
same,Adverse events: Percentage,[2]; [9],4.2%
same,Adverse events: Percentage,"[2]; Watery stool, positive related",16.7%
same,Adverse events: Number of cases,"[2]; Watery stool, positive related to ginsenoside compound K, 24 subjects",4^a
same,Intensity of AEs,[2]; all AEs,mild
same,Instances of AEs recorded,[2]; both treatments,19
same,Number of subjects with AEs,[2]; of 24 subjects,11
same,Subjects with AEs (percentage),"[2]; of 24 subjects, both treatments",45.8%
same,"Abnormalities in physical examination, vital signs, ECGs, or standard clinical laboratory test results",[2]; single 200 mg dose,not associated with any clinically significant abnormalities
same,AUC(0-inf),[3]; female,4670 ± 2140 ng·h/mL
same,AUC(0-t),[3]; female,4490 ± 2030 ng·h/mL
same,Tmax,[3]; female,2.58 ± 0.67 h
same,half-life,[3]; female,5.66 ± 2.04 h
same,Cmax,[3]; Female,873 ± 427 ng/mL
same,Cmax,[3]; Male,601 ± 183 ng/mL
same,AUC(0-inf),[3]; male,3680 ± 1360 ng·h/mL
same,AUC(0-t),[3]; male,3600 ± 1320 ng·h/mL
same,Tmax,[3]; male,3.19 ± 1.25 h
same,half-life,[3]; male,4.15 ± 1.9 h
same,Dose exhibiting initial anti-inflammatory activity,[4],10 mg/kg
